Source: patent US20250129032A1 (Nerio Therapeutics, Inc., priority 2022, published 2025)

Experiments:
[1] = tested on: murine B16F10 melanoma cell line; assay: B16F10 IFNγ-induced cellular growth inhibition assay (xCELLigence RTCA); assay type: cell-based; conditions: Mus musculus, B16-F10, 48 h; read-out: B16 IFNγ Mediated Growth Inhibition Assay: AVG IC50
Description: Example B: B16F10 Cellular Growth Inhibition Assay Compound activity was determined using an interferon gamma (IFNγ)-induced cellular growth inhibition assay with the murine B16F10 melanoma cell line on an Agilent xCELLigence Real-Time Cell Analysis platform (RTCA). RTCA E-Plate View 96 plates (Agilent, 300601010) were pre-equilibrated with 50 μL of assay media (DMEM+10% FBS, Gibco 10566-024, Gibco 10082-147) at 37° C. in a humidified incubator before taking an initial measurement of impedance (sweep). B16F10 cells cultured in assay media were dissociated with TrypLE Express (Gibco 12605-010) for five minutes at 37° C., diluted in 3 volumes of assay buffer, centrifuged for 5 minutes at 500×g at room temperature before diluting cells to 7,700 cells/mL in assay media, plating 130 μL/well (1,000 cells/well) in the inner 60 wells of the assay plate, and adding 150 μL of assay media to the outer wells of the plate. Cells were incubated at room temperature for 20 min to allow cells to settle before placing them in the xCELLigence reader and incubating overnight at 37° C., sweeping wells every 15 minutes. After 24 hours, well readings were paused, plates were removed from the incubator and compounds were added using a Tecan D300e dispenser. All wells were normalized to a final concentration of 0.5% DMSO. Following a 30 min incubation at 37° C., recombinant mouse IFNγ (R&D Systems™ 485MI100) was diluted to 10 ng/mL in assay media and 20 μL was added to assay wells (1 ng/mL final concentration). Assay plates were placed in the xCELLigence reader and swept every 15 minutes. After 48 hours, well readings were normalized to the time point immediately preceding compound addition and the area under the growth curve (AUC) was calculated by the RTCA software and exported.

[2] = molecular target: untagged, full-length human PTPN2 (TC45) (1-387) protein (Homo sapiens (Human), UniProt P17706); assay: Enzymatic assay used to determine potency of PTPN2 inhibitors (DiFMUP substrate); assay type: biochemical; conditions: 0.5 nM PTPN2, 100 μM DiFMUP, 30 min at room temperature
Excerpt: Compounds were subsequently added using a Tecan D300e dispenser. […] A four-parameter curve fit was used to determine IC50 values from % inhibition data.

Sequence of untagged, full-length human PTPN2 (TC45) (1-387) protein (P17706 other isoform, or with tags, fused parts or gaps): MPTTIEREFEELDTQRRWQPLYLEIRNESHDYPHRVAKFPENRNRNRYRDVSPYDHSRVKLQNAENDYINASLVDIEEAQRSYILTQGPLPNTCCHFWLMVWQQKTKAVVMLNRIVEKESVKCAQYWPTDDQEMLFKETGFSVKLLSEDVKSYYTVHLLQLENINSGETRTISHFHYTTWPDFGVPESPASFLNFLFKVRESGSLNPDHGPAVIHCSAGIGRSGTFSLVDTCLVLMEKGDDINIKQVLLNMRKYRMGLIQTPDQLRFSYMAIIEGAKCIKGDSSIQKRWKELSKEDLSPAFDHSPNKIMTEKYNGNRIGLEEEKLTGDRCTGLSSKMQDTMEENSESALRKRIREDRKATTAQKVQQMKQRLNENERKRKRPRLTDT

IC50 [1] [nM]	SMILES	IC50 [2] [nM]
> 100000	CN(C)[C@H]1CCc2cc(O)c(N3CC(=O)NS3(=O)=O)c(F)c2CC1 (single isomer, unassigned) [Example 18]	879
6660	O=C1CN(c2c(O)cc3c(c2F)CC[C@@H](N2CCC4(CCC4)C2)CC3)S(=O)(=O)N1 (single isomer, unassigned) [Example 16]	10.7
6630	O=C1CN(c2c(O)cc3c(c2F)CC[C@@H](NCCC2CCCC2)CC3)S(=O)(=O)N1 (single isomer, unassigned) [Example 10]	5
2160	CNC[C@H]1CCc2cc(O)c(N3CC(=O)NS3(=O)=O)c(F)c2CC1 (single isomer, unassigned) [Example 23]	2
–	NCC[C@@H]1CCc2cc(O)c(N3CC(=O)NS3(=O)=O)c(F)c2CC1 (single isomer, unassigned) [Example 1]	5.07
1630	N[C@H]1CCc2cc(O)c(N3CC(=O)NS3(=O)=O)c(F)c2CC1 (single isomer, unassigned) [Example 6]	5.67
16800	O=C1CN(c2c(O)cc3c(c2F)CC[C@H](N2CCCC2)CC3)S(=O)(=O)N1 (single isomer, unassigned) [Example 15]	79.5
> 100000	N[C@@H]1CCc2cc(O)c(N3CC(=O)NS3(=O)=O)c(F)c2CC1 (single isomer, unassigned) [Example 7]	444
2890	CN(C)C1CCc2cc(O)c(N3CC(=O)NS3(=O)=O)c(F)c2CC1 (stereo not shown) [Example 4]	14.9
1590	O=C1CN(c2c(O)cc3c(c2F)CCC(O)CC3)S(=O)(=O)N1 (stereo not shown) [Example 8]	47.3
2490	CCNC1CCc2cc(O)c(N3CC(=O)NS3(=O)=O)c(F)c2CC1 (stereo not shown) [Example 5]	17.5
15200	O=C1CN(c2c(O)cc3c(c2F)CC[C@@H](N2CCCC2)CC3)S(=O)(=O)N1 (single isomer, unassigned) [Example 14]	13.6
4060	O=C1CN(c2c(O)cc3c(c2F)CCC(NC2CCCC2)CC3)S(=O)(=O)N1 (stereo not shown) [Example 12]	19.8
54000	CCN[C@@H]1CCc2cc(O)c(N3CC(=O)NS3(=O)=O)c(F)c2CC1 (single isomer, unassigned) [Example 21]	374
4130	CCN[C@H]1CCc2cc(O)c(N3CC(=O)NS3(=O)=O)c(F)c2CC1 (single isomer, unassigned) [Example 20]	12.7
> 100000	CC(C)(C)NC1CCc2cc(O)c(N3CC(=O)NS3(=O)=O)c(F)c2CC1 (stereo not shown) [Example 13]	85.3

IC50 [1] [nM]	SMILES	IC50 [2] [nM]
> 100000	O=C1CN(c2c(O)cc3c(c2F)CC[C@H](NCCC2CCCC2)CC3)S(=O)(=O)N1 (single isomer, unassigned) [Example 11]	149
5020	CC(C)CCN[C@H]1CCCc2cc(O)c(N3CC(=O)NS3(=O)=O)c(F)c2C1 (single isomer, unassigned) [Example 26]	19.8
2690	CN(C)[C@@H]1CCc2cc(O)c(N3CC(=O)NS3(=O)=O)c(F)c2CC1 (single isomer, unassigned) [Example 19]	12.4
–	NCC[C@H]1CCc2cc(O)c(N3CC(=O)NS3(=O)=O)c(F)c2CC1 (single isomer, unassigned) [Example 2]	176
13500	O=C1CN(c2c(O)cc3c(c2F)CC[C@H](N2CCC4(CCC4)C2)CC3)S(=O)(=O)N1 (single isomer, unassigned) [Example 17]	93
14900	N#CCC1CCc2cc(O)c(N3CC(=O)NS3(=O)=O)c(F)c2CC1 (stereo not shown) [Example 32]	46.9
–	CN(C)CCC1CCc2cc(O)c(N3CC(=O)NS3(=O)=O)c(F)c2CC1 (stereo not shown) [Example 33]	21.1
4150	O=C1CN(c2c(O)cc3c(c2F)CCC(N2CCCC2)CC3)S(=O)(=O)N1 (stereo not shown) [Example 9]	21.6
> 71100	CC(C)CCN[C@@H]1CCCc2cc(O)c(N3CC(=O)NS3(=O)=O)c(F)c2C1 (single isomer, unassigned) [Example 27]	215
> 61200	CC(C)CCN(C)C1CCCc2cc(O)c(N3CC(=O)NS3(=O)=O)c(F)c2C1 (stereo not shown) [Example 28, 5-(1-fluoro-3-hydroxy-8-(isopentyl(methyl)amino)-6,7,8,9-tetrahydro-5H-benzo[7]annulen-2-yl)-1,2,5-thiadiazolidin-3-one 1,1-dioxide]	39.9
5140	CNC1CCc2cc(O)c(N3CC(=O)NS3(=O)=O)c(F)c2CC1 (stereo not shown) [Example 3]	16.5
–	CNC[C@@H]1CCc2cc(O)c(N3CC(=O)NS3(=O)=O)c(F)c2CC1 (single isomer, unassigned) [Example 24]	75
13600	O=C1CN(c2c(O)cc3c(c2F)CCCCC3)S(=O)(=O)N1 [Example 29, 5-(1-fluoro-3-hydroxy-6,7,8,9-tetrahydro-5H-benzo[7]annulen-2-yl)-1,2,5-thiadiazolidin-3-one 1,1-dioxide]	109
–	CC(C)CCNC1CCc2cc(O)c(N3CC(=O)NS3(=O)=O)c(F)c2CC1 (stereo not shown) [Example 22]	24.5
7080	CC(C)CCNC1CCCc2cc(O)c(N3CC(=O)NS3(=O)=O)c(F)c2C1 (stereo not shown) [Example 25, 5-(1-fluoro-3-hydroxy-8-(isopentylamino)-6,7,8,9-tetrahydro-5H-benzo[7]annulen-2-yl)-1,2,5-thiadiazolidin-3-one 1,1-dioxide]	25.9
1730	CC(C)CCCN1CCc2cc(O)c(N3CC(=O)NS3(=O)=O)c(F)c2CC1 [Example 31, 5-(6-fluoro-8-hydroxy-3-(4-methylpentyl)-2,3,4,5-tetrahydro-1H-benzo[d]azepin-7-yl)-1,2,5-thiadiazolidin-3-one 1,1-dioxide]	1.06

SMILES	IC50 [1] [nM]	IC50 [2] [nM]
O=C1CN(c2c(O)cc3c(c2F)CCNCC3)S(=O)(=O)N1 [Example 30, 5-(6-fluoro-8-hydroxy-2,3,4,5-tetrahydro-1H-benzo[d]azepin-7-yl)-1,2,5-thiadiazolidin-3-one 1,1-dioxide]	996	2.28
